One may read the IC50 as the point on the concentration scale where inhibition reaches its midpoint.

This assay has as its target T1, PKCe (Homo sapiens, UniProt Q02156).
T1 sequence (Q02156 1-737): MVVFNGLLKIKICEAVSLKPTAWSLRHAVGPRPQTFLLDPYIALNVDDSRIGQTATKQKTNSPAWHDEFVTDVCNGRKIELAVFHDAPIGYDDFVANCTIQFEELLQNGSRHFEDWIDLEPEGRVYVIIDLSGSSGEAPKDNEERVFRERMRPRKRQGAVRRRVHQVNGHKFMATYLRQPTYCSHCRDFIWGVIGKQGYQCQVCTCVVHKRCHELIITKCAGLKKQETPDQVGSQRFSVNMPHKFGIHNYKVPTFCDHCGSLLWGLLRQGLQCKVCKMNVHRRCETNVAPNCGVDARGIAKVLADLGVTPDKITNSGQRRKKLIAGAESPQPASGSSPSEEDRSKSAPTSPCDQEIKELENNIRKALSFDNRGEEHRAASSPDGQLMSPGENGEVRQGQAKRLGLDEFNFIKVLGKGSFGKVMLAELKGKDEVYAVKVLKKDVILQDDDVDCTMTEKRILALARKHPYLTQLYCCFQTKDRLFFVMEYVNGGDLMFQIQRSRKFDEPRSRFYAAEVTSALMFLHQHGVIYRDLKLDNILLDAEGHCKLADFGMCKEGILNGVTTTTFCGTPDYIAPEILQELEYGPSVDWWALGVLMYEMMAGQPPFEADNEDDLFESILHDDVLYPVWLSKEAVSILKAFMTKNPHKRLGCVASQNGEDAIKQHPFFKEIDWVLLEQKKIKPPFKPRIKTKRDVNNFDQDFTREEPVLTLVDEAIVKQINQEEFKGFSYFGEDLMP
As to the kind of experiment: Kinase specificity assay (33P phosphoryl transfer, LCCA or AlphaScreen). To be noted: ATP close to KM; read-out: PKCe inhibition, IC50. The format is biochemical. Background: Bead proximity is the source of the signal in Alpha formats.

Molecules are shown by their SMILES. Bounds are passed on as bounds.

In the case of `NC(=O)c1nc(-c2cccc3ccccc23)cnc1N` [Example 2, 3-Amino-6-naphthalen-1-ylpyrazine-2-carboxamide], the IC50 is at least 10 µM.

The values are drawn from patent US7704995B2 (Exelixis, Inc., priority 2003, dated 2010).
